This note sets out measurements from patent US10464926B2, “Heterobicyclic compounds and their use for the treatment of tuberculosis” (OTSUKA PHARMACEUTICAL CO., LTD., priority 2014, dated 2019).

Data set [1] concerns Mycobacterium tuberculosis (M. tuberculosis Kurono). Kind of data set: Antibacterial test (agar dilution method), M. tuberculosis Kurono. Format: cell-based. The settings on record: Mycobacterium tuberculosis, 336 h; 7H11 agar medium, about 10^6 CFU/mL, 37° C. for 14 days; read-out: Minimum inhibitory concentration (MIC) kurono. On the technique in general: Agar dilution tests growth on a series of plates holding different concentrations.

Data set [2] relates to Mycobacterium tuberculosis (M. tuberculosis H37Rv). Kind of data set: Antibacterial test (agar plate dilution method), M. tuberculosis H37Rv. The format is cell-based. The following applies: 336 h, 7H11 agar medium, about 10^6 CFU/mL, 37° C. for 14 days, read-out: minimum inhibitory concentration against M. tuberculosis H37Rv.

Take `O=C1CCc2c(OCC3(O)CCN(c4ccc(OCc5ccc(OC(F)(F)F)cc5)cc4F)CC3)ccc(F)c2N1` [Example 152, 8-Fluoro-5-{[1-(2-fluoro-4-{[4-(trifluoromethoxy)benzyl]oxy}phenyl)-4-hydroxypiperidin-4-yl]methoxy}-3,4-dihydroquinolin-2(1H)-one]: the melting point (as a rule, the temperature, or range, at which the solid turns liquid) lay within 199.9 to 200.5 °C. In addition, the MIC in data set [1] is below 0.39 µg/mL.
The like results for `COCCOc1cc(N2CCC(O)(COc3ccc(Cl)c4c3CCC(=O)N4)CC2)c(F)cc1Cl` [Example 175, 8-Chloro-5-({1-[4-chloro-2-fluoro-5-(2-methoxyethoxy)phenyl]-4-hydroxypiperidin-4-yl}methoxy)-3,4-dihydroquinolin-2(1H)-one] were, in that order, 143.5 to 145.1 °C and below 0.39 µg/mL.
As for `O=C1CCc2c(OC[C@]3(O)CCN(c4ccc(Cl)cc4F)C[C@H]3O)ccc(F)c2N1` [Example 259, 5-{[(3R,4R)-1-(4-Chloro-2-fluorophenyl)-3,4-dihydroxypiperidin-4-yl]methoxy}-8-fluoro-3,4-dihydroquinolin-2(1H)-one], the MIC in data set [2] and in data set [1] was below 0.39 µg/mL each time.
Take `O=C1CCc2c(cccc2OC[C@]2(O)CCN(c3ccc(Br)cc3F)C[C@H]2O)N1` [Example 347, 5-{[(3R,4R)-1-(4-Bromo-2-fluorophenyl)-3,4-dihydroxypiperidin-4-yl]methoxy}-3,4-dihydroquinolin-2(1H)-one]: the melting point fell in the range of 226 to 227 °C. In data set [1], the MIC is below 0.39 µg/mL.
Turning to `O=C1CCc2c(OC[C@@]3(O)CCN(c4ccc(Br)cc4F)C[C@H]3O)ccc(Cl)c2N1` [Example 364, 5-{[(3R,4S)-1-(4-Bromo-2-fluorophenyl)-3,4-dihydroxypiperidin-4-yl]methoxy}-8-chloro-3,4-dihydroquinolin-2(1H)-one], the melting point is 185.8 to 186 °C. Moreover, in data set [1], the MIC is below 0.39 µg/mL.
Regarding `O=C1CCc2c(OCC3CCN(c4ncc(Cl)cc4Cl)CC3)ccc(F)c2N1` [Example 399, 5-{[1-(3,5-Dichloropyridin-2-yl)piperidin-4-yl]methoxy}-8-fluoro-3,4-dihydroquinolin-2(1H)-one], the melting point fell in the range of 194 to 195 °C. In addition, the MIC in data set [1] was below 0.39 µg/mL.
The compound `O=C1CCc2c(OC[C@@]3(O)CCN(c4c(F)cc(Cl)cc4F)C[C@H]3F)ccc(F)c2N1` [Example 446, 5-{[(3R,4S)-1-(4-Chloro-2,6-difluorophenyl)-3-fluoro-4-hydroxypiperidin-4-yl]methoxy}-8-fluoro-3,4-dihydroquinolin-2(1H)-one] gave a melting point of 224 to 225 °C. Further, the MIC in data set [1] was below 0.39 µg/mL.
`O=C1CCc2c(OC[C@]3(O)CCN(c4c(F)cc(Cl)cc4F)C[C@@H]3F)ccc(F)c2N1` [Example 447, 5-{[(3S,4R)-1-(4-Chloro-2,6-difluorophenyl)-3-fluoro-4-hydroxypiperidin-4-yl]methoxy}-8-fluoro-3,4-dihydroquinolin-2(1H)-one]: the melting point is 224 to 225 °C. The MIC in data set [1] was below 0.39 µg/mL.
The compound `O=C1CCc2c(OC[C@]3(O)CCN(c4c(F)cc(Cl)cc4F)C[C@H]3F)ccc(F)c2N1` [Example 448, 5-{[(3R,4R)-1-(4-Chloro-2,6-difluorophenyl)-3-fluoro-4-hydroxypiperidin-4-yl]methoxy}-8-fluoro-3,4-dihydroquinolin-2(1H)-one] came in with a melting point of 207 to 209 °C. In addition, the MIC in data set [1] was below 0.39 µg/mL.
In turn, `O=C1CCc2c(OC[C@@]3(O)CCN(c4c(F)cc(Cl)cc4F)C[C@@H]3F)ccc(F)c2N1` [Example 449, 5-{[(3S,4S)-1-(4-Chloro-2,6-difluorophenyl)-3-fluoro-4-hydroxypiperidin-4-yl]methoxy}-8-fluoro-3,4-dihydroquinolin-2(1H)-one] displayed a melting point of 209 to 210 °C. Besides, in data set [1], the MIC was below 0.39 µg/mL.
`O=C1CCc2c(SCC3(O)CCN(c4ccc(Cl)cc4F)CC3)ccc(F)c2N1` [Example 460, 5-({[1-(4-Chloro-2-fluorophenyl)-4-hydroxypiperidin-4-yl]methyl}sulfanyl)-8-fluoro-3,4-dihydroquinolin-2(1H)-one] registered a melting point of 171 to 172 °C. In data set [1], the MIC was below 0.39 µg/mL.
